Laboratory results taken from patent US20040076968A1, “Method for detecting pre-disposition to hepatotoxicity” (priority 2000, published 2004).

Tests used:
[1] = system: UGT1A7 gene; assay: Association of UGT1A7 polymorphisms with liver function abnormality in tolcapone-treated patients (case-control genotyping); format: in vivo, human
From the text: Disease severity had already been controlled for by the original study inclusion criteria.
For all other single nucleotide polymorphisms (SNPs) discovery and genotyping was done by double-stranded DNA sequencing using an ABI capillary sequencer and Big Dye chemistry (ABI). The primers used to amplify all exons are shown below and were also used as sequencing primers. Publicly available genomic sequences were used as references for primer design. All polymorphisms were targeted with these pairs-of-primer sets:
Fourty nanograms of genomic DNA were PCR-amplified in 50 μl reactions using an automated PCR machine. Reaction conditions varied as follows. For the amplification of the UGT1A6-fragment conditions were as follows: 10 mM Tris pH 8.3, 50 mM KCl, 1.5 mM MgCl2, 0.2 mM of each dNTP, 0.4 μM of each primer and 1.5U Boehringer Taq Polymerase. The thermocycling protocol consisted of an initial incubation of 95° C. for 15 min. followed by 35 cycles of 94° C. for 1 min., 57° C. for 30 sec., 72° C. for 1 min., and one final extension step of 72° C. for 10 min. The UGT1A7-1 fragment was amplified using Qiagen PCR buffer with 1.5 mM MgCl2, 0.2 mM of each dNTP, 0.4 μM of each primer and 1.5U Boehringer Taq Polymerase. The thermocycling protocol was the same as for UGT1A6-fragment with one exception: the annealing temperature was 61° C. For UGT1A7-2 fragment PCR conditions were as follows: 150 mM Tris pH 8.5, 15 mM (NH4)2SO4, 3.5 mM MgCl2, 0.2 mM of each dNTP, 0.4 μM of each primer and 1.5U Qiagen Hot Start Taq Polymerase. Thermocycling was done using a touch-down PCR protocol. After an iniatial amplification of 95° C. for 10 min. followed 5 cycles of 95° C. for 1 min., 62° C. for 30 sec. (minus 0.5° C. per cycle), 72° C. for 1 min and thirty cycles of 95° C. for 1 min., 60° C. for 30 sec., 72° C. for 1 min. and a final extension step of 72° C. for 10 min. After PCR amplification fragments were purified using the Qiaquick PCR purification kit on a Biorobot 9600. Cycle sequencing was performed on an automated PCR machine using ABI Big Dye terminator chemistry according to the manufacturer's intruction with the following changes: 2.5-5 ng/100 bp of PCR product were mixed with 2 μl Big Dye terminatior mix, oligonucleotide primer concentration was 10 pmol, if necessary 5% DMSO was added to the reaction; the final reaction volume was 10 μl. Sequencing reactions were subjected to 28 cycles at 93° C. for 30 sec, 48° C. for 30 sec, and 58° C. for 120 sec., followed by an ethanol/NaOAc precipitation. After decanting the ethanol, samples were evaporated to dryness using a SpeedVac for 2 min. and were resuspended in 45 μl ultrapure water (MERCK, HPLC grade). […] were loaded on an ABI 3700 capillary sequencer using POP5 as a polymer. After sequencing, the polymorphism analyses were done using Polyphred software (licenced from University of Washington).
The patient samples were divided into two groups.
For each genotype, the following analyses were performed:
a) Analysis of the entire genotype: patients were classified according to the following three categories: homozygous 1/1 (two copies of allele 1 and no copies of allele 2), heterozygous 1/2 (one copy of allele 1 and one copy of allele 2) or homozygous 2/2 (no copies of allele 1 and two copies of allele 2). Analysis was conducted to assess whether there were differences in the proportion of case patients in each of these groups, compared with the proportion of control patients. The Cochran-Maentel-Hanszel (CMH) test was applied to the data presented in a 2-by-3 table (the two columns indicating presence or absence of liver function abnormality and the three rows indicating the three categories of the genotype).

[2] = system: rat hepatotocyte cultures; assay: Cytotoxicity in rat hepatocyte cultures; format: cell-based; conditions: in vitro

Which results are given for `Cc1ccc(C(=O)c2cc(O)c(O)c([N+](=O)[O-])c2)cc1` [tolcapone]?
n (%) of patients ([1]; UGT1A7_555 silent or Arg131Lys, Genotype Heterozygous A/C, Liver Function Abnormality Absent): 124 (46.1%); n (%) of patients ([1]; UGT1A7_555 silent or Arg131Lys, Genotype Heterozygous A/C, Liver Function Abnormality Present): 60 (45.5%); n (%) of patients ([1]; UGT1A7_555 silent or Arg131Lys, Genotype Homozygous A/A, Liver Function Abnormality Absent): 96 (35.7%); n (%) of patients ([1]; UGT1A7_555 silent or Arg131Lys, Genotype Homozygous A/A, Liver Function Abnormality Present): 58 (43.9%); n (%) of patients ([1]; UGT1A7_555 silent or Arg131Lys, Genotype Homozygous G/G, Liver Function Abnormality Absent): 49 (18.2%); n (%) of patients ([1]; UGT1A7_555 silent or Arg131Lys, Genotype Homozygous G/G, Liver Function Abnormality Present): 14 (10.6%); n (%) of patients ([1]; UGT1A7_556 Arg131Lys or Gln, Allele A Absent, Liver Function Abnormality Absent): 49 (18.3%); n (%) of patients ([1]; UGT1A7_556 Arg131Lys or Gln, Allele A Absent, Liver Function Abnormality Present): 14 (10.6%); n (%) of patients ([1]; UGT1A7_556 Arg131Lys or Gln, Allele A Present, Liver Function Abnormality Absent): 219 (81.7%); n (%) of patients ([1]; UGT1A7_556 Arg131Lys or Gln, Allele A Present, Liver Function Abnormality Present): 118 (89.4%); n (%) of patients ([1]; UGT1A7_556 Arg131Lys or Gln, Allele G Absent, Liver Function Abnormality Absent): 96 (35.8%); n (%) of patients ([1]; UGT1A7_556 Arg131Lys or Gln, Allele G Absent, Liver Function Abnormality Present): 59 (44.7%); n (%) of patients ([1]; UGT1A7_556 Arg131Lys or Gln, Allele G Present, Liver Function Abnormality Absent): 172 (64.2%); n (%) of patients ([1]; UGT1A7_556 Arg131Lys or Gln, Allele G Present, Liver Function Abnormality Present): 73 (55.3%); n (%) of patients ([1]; UGT1A7_556 Arg131Lys or Gln, Genotype Heterozygous A/G, Liver Function Abnormality Absent): 123 (45.9%); n (%) of patients ([1]; UGT1A7_556 Arg131Lys or Gln, Genotype Heterozygous A/G, Liver Function Abnormality Present): 59 (44.7%); n (%) of patients ([1]; UGT1A7_556 Arg131Lys or Gln, Genotype Homozygous A/A, Liver Function Abnormality Absent): 96 (35.8%); n (%) of patients ([1]; UGT1A7_556 Arg131Lys or Gln, Genotype Homozygous A/A, Liver Function Abnormality Present): 44 (33.8%); n (%) of patients ([1]; UGT1A7_556 Arg131Lys or Gln, Genotype Homozygous G/G, Liver Function Abnormality Absent): 49 (18.3%); n (%) of patients ([1]; UGT1A7_556 Arg131Lys or Gln, Genotype Homozygous G/G, Liver Function Abnormality Present): 14 (10.6%); n (%) of patients ([1]; UGT1A7_786 Trp208Arg, Allele G Absent, Liver Function Abnormality Absent): 124 (46.3%); n (%) of patients ([1]; UGT1A7_786 Trp208Arg, Allele G Absent, Liver Function Abnormality Present): 46 (34.3%); n (%) of patients ([1]; UGT1A7_786 Trp208Arg, Allele G Present, Liver Function Abnormality Absent): 144 (53.7%); n (%) of patients ([1]; UGT1A7_786 Trp208Arg, Allele G Present, Liver Function Abnormality Present): 86 (65.7%); n (%) of patients ([1]; UGT1A7_786 Trp208Arg, Allele T Absent, Liver Function Abnormality Absent): 30 (11.2%); n (%) of patients ([1]; UGT1A7_786 Trp208Arg, Allele T Absent, Liver Function Abnormality Present): 26 (19.4%); n (%) of patients ([1]; UGT1A7_786 Trp208Arg, Allele T Present, Liver Function Abnormality Absent): 238 (88.8%); n (%) of patients ([1]; UGT1A7_786 Trp208Arg, Allele T Present, Liver Function Abnormality Present): 108 (80.6%); n (%) of patients ([1]; UGT1A7_786 Trp208Arg, Genotype Heterozygous T/C, Liver Function Abnormality Absent): 114 (42.5%); n (%) of patients ([1]; UGT1A7_786 Trp208Arg, Genotype Heterozygous T/C, Liver Function Abnormality Present): 62 (46.3%); n (%) of patients ([1]; UGT1A7_786 Trp208Arg, Genotype Homozygous C/C, Liver Function Abnormality Absent): 30 (11.2%); n (%) of patients ([1]; UGT1A7_786 Trp208Arg, Genotype Homozygous C/C, Liver Function Abnormality Present): 26 (19.4%); n (%) of patients ([1]; UGT1A7_786 Trp208Arg, Genotype Homozygous T/T, Liver Function Abnormality Absent): 124 (46.3%); n (%) of patients ([1]; UGT1A7_786 Trp208Arg, Genotype Homozygous T/T, Liver Function Abnormality Present): 46 (34.3%); cytotoxicity on inhibition of glucuronidation and oxidation [2]: increase cytotoxicity
